# Measured values taken from ChEMBL document CHEMBL3769344 (J Med Chem, 2016).
# System: Influenza A virus
# Experiment: Antiviral activity against Influenza A virus A/WSN/33(H1N1) expressing M2 proton channel S31N mutant infected in MDCK cells assessed as plaque formation at 1 uM preincubated for 30 mins followed by infection measured on day 2 post infection by naphthalene black dye-based assay relative to control
# Format: functional, A/WSN/1933(H1N1)
row,SMILES,Activity
1,OC1C2CC3CC1CC(NCc1cc(-c4cccs4)on1)(C3)C2 (configuration not stated),10%
2,c1c(CNC23CC4CC(CC(C4)C2)C3)noc1C1CC1,42%
3,Clc1ccccc1-c1cc(CNC23CC4CC(CC(C4)C2)C3)no1,84%
4,CCCc1cc(CNC23CC4CC(CC(C4)C2)C3)no1,73%
5,O=C1C2CC3CC1CC(NCc1cc(-c4cccs4)on1)(C3)C2,31%
6,c1csc(-c2nc(CNC34CC5CC(CC(C5)C3)C4)no2)c1,66%
7,Clc1ccccc1-c1nc(CNC23CC4CC(CC(C4)C2)C3)no1,88%
8,c1csc(-c2cc(CNC34CC5COC(CC(C5)C3)C4)no2)c1 (configuration not stated),58%
9,c1csc(-c2cc(NC34CC5CC(CC(C5)C3)C4)no2)c1,32%
10,COc1ccsc1-c1cc(CNC23CC4CC(CC(O)(C4)C2)C3)no1,33%
11,c1ccc(-c2cc(CNC34CC5CC(CC(C5)C3)C4)no2)cc1,26%
12,c1c(CNC23CC4CC(CC(C4)C2)C3)noc1C1CCCCC1,57%
13,c1c(CNC23CC4CC(CC(C4)C2)C3)noc1C1CCC1,42%
14,Fc1cccc(F)c1-c1cc(CNC23CC4CC(CC(C4)C2)C3)no1,56%
15,COc1ccc(-c2nc(CNC34CC5CC(CC(C5)C3)C4)no2)c(OC)c1,76%
16,c1cc(-c2nc(CNC34CC5CC(CC(C5)C3)C4)no2)cs1,74%
17,c1cc(-c2cc(CNC34CC5CC(CC(C5)C3)C4)no2)cs1,47%
18,c1csc(-c2cc(CNC34CC5CC(C3)C3(CO3)C(C5)C4)no2)c1 (configuration not stated),72%
19,c1csc(-c2nnc(CNC34CC5CC(CC(C5)C3)C4)s2)c1,39%
20,COc1cccc(-c2cc(CNC34CC5CC(CC(C5)C3)C4)no2)c1,39%
21,CC1(O)C2CC3CC1CC(NCc1cc(-c4cccs4)on1)(C3)C2 (configuration not stated),27%
22,COc1ccc(-c2cc(CNC34CC5CC(CC(C5)C3)C4)no2)cc1,59%
23,c1coc(-c2cc(CNC34CC5CC(CC(C5)C3)C4)no2)c1,47%
24,CC(C)c1cc(CNC23CC4CC(CC(C4)C2)C3)no1,66%
25,COc1ccccc1-c1nc(CNC23CC4CC(CC(C4)C2)C3)no1,66%
26,C(NC12CC3CC(CC(C3)C1)C2)c1noc(C2CC2)n1,82%
27,OC12CC3CC(C1)CC(NCc1cc(-c4cccs4)on1)(C3)C2,40%
28,OC12CC3CC(O)(C1)CC(NCc1cc(-c4cccs4)on1)(C3)C2,69%
29,COc1ccsc1-c1cc(CNC23CC4CC(CC(C4)C2)C3)no1,39%
30,COc1ccc(-c2nc(CNC34CC5CC(CC(C5)C3)C4)no2)cc1,92%

# System: Influenza A virus
# Experiment: Antiviral activity against Influenza A virus A/WSN/33(H1N1) expressing M2 proton channel S31N mutant infected in MDCK cells assessed as reduction in plaque formation preincubated for 30 mins followed by infection measured on day 2 post infection by naphthalene black dye-based assay
# Format: functional, organism-based, A/WSN/1933(H1N1)
row,SMILES,EC50
1,OC1C2CC3CC1CC(NCc1cc(-c4cccs4)on1)(C3)C2 (configuration not stated),727 nM
2,Oc1ccc(NC23CC4CC(CC(C4)C2)C3)c(O)c1,3200 nM
3,c1csc(-c2cc(NC34CC5CC(CC(C5)C3)C4)no2)c1,353 nM
4,COc1ccsc1-c1cc(CNC23CC4CC(CC(O)(C4)C2)C3)no1,404 nM
5,OC12CC3CC(C1)CC(NCc1cc(-c4cccs4)on1)(C3)C2,510 nM
6,OC12CC3CC(O)(C1)CC(NCc1cc(-c4cccs4)on1)(C3)C2,2500 nM
7,NC12CC3CC(CC(C3)C1)C2 [AMANTADINE],22500 nM
